Source: patent US20060003924A1, “Sulfation-independent L-selectin or E-selectin ligand (HCELL) and therapeutics thereof” (priority 1994, published 2006)
Entries after “also recorded” stand apart in the source; their conditions may differ. Like-named read-outs stand apart in the source and are kept apart here.

Experiments:
KG1a [1] = experiment: Lymphocyte adherence assay on KG1a cytocentrifuge preparations (Examples 2-6); format: cell-based, human; conditions: for return of binding activity following desialylation: KG1a after neuraminidase
LN HEV = experiment: Lymphocyte adherence to frozen rat lymph node sections (LN HEV, positive control); format: cell-based
Procedure: Lymphocyte Adherence Assay. […] Cytocentrifuge preparations of KG1a or other cell lines were made on a Cytospin 3 Cytocentrifuge (Shandon Lipshaw, Pittsburgh, Pa.). Frozen rat LN sections […] thick were mounted on slides, and lymphocyte binding to LN HEV served as a positive control in all experiments.
Lymphocyte suspensions ([…]) were overlaid onto cytocentrifuge or LN sections in duplicate and placed on a rotating platform (80 rpm) at 4° C. for 30 minutes. Slides were then rinsed in cold PBS to remove non-adherent lymphocytes, fixed in 3% glutaraldehyde, and stained with methyl green-thionin. Slides were examined under the light microscope for adherence of lymphocytes to KG1a or LN HEV.

KG1a cells = experiment: Stamper-Woodruff lymphocyte adherence assay on KG1a cytospins (Example 9); format: cell-based, human; conditions: for L-selectin ligand Activity of KG1a Cells Following Protease or Phospholipase C Treatment, % Control Binding: enzymatic treatment of cells in suspension before cytocentrifugation
CD43 = experiment: Flow cytometry of sialic acid-dependent L60 epitope of CD43 on KG1a after neuraminidase; format: cell-based, human; conditions: KG1a cultured with the agent
E-selectin = target: T1, E-selectin (Homo sapiens, UniProt P16581); experiment: E-selectin ligand activity of immunoprecipitated proteins (CHO-E cell rolling); format: cell-based; conditions: for E-selectin-mediated CHO-E cell rolling on immunoprecipitated protein spotted onto plastic dishes: 3.8 dynes/cm^2
T1 construct: expressed in transfected cells; host or cells: CHO cells (CHO-E)
T1 sequence (P16581 22-610): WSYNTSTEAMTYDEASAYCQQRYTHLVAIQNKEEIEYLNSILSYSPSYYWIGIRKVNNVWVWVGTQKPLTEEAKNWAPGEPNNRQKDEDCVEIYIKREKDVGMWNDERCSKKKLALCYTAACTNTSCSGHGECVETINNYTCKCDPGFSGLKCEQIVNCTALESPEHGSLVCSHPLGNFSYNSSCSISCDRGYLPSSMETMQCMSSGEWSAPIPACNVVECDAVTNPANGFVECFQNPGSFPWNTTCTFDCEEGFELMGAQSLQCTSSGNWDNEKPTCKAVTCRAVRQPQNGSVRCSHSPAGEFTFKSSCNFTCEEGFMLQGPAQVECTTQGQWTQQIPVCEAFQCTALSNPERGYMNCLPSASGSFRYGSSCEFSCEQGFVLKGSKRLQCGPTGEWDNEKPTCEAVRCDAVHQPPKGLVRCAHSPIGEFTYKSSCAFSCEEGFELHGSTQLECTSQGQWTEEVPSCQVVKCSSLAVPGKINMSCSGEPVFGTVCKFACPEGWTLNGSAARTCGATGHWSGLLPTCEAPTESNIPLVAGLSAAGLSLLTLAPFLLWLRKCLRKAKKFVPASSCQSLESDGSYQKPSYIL

KG1a [2] = experiment: KG1a cell viability by trypan blue exclusion; format: cell-based, human; conditions: KG1a after the treatment
[3] = system: E-selectin ligand activity on KG1a and HL-60 cells; experiment: Parallel-plate flow chamber: CHO-E cell rolling on fixed hematopoietic cell monolayers; format: cell-based, human; conditions: 2.8 dynes/cm^2, 3.8 dynes/cm^2
KG1a CD44 = target: T2, KG1a CD44 (Homo sapiens, UniProt P16070); experiment: CHO-E cell rolling over blotted or spotted KG1a membrane proteins / immunoprecipitated CD44; format: cell-based; conditions: 3.8 dynes/cm^2
T2 construct: was immunoprecipitated from KG1a membrane protein (50 μg); endogenous in cells; host or cells: KG1a cells (membrane preparation, Hermes-1 immunoprecipitate)
T2 sequence (P16070 21-361 isoform P16070-12 limits assumed): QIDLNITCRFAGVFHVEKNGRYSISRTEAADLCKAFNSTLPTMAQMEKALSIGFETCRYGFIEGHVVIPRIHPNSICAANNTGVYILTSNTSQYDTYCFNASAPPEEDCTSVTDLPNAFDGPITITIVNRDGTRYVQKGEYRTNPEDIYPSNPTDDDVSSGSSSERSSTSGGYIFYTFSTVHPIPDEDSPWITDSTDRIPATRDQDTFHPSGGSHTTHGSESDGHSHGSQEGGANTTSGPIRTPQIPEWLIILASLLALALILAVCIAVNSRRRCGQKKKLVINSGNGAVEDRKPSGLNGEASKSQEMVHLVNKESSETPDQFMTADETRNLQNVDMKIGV

[4] = LYMPHOCYTE TREATMENT, 1 mM EDTA, 10 mM mannose-6-P, 10 mg/ml PPME, 5 mg/ml fucoidin, 10 ng/ml PMA
[5] = 24 h culture with inhibitor after 1 h neuraminidase (0.1 U/ml), tunicamycin 15 μg/ml, deoxymannojirimycin 0.4 mg/ml, swainsonine 40 μg/ml
[6] = inhibitor alone, 24 h, tunicamycin 15 μg/ml, deoxymannojirimycin 0.4 mg/ml, swainsonine 40 μg/ml
[7] = digestion then culture without inhibitor (neuraminidase 24 hour, bromelain 20 hour)
[8] = 20 hr culture, no neuraminidase pretreatment, tunicamycin 15 ug/ml, cycloheximide 1.25 ug/ml
[9] = after neuraminidase, 24 hr culture with chlorate 10 mM, 20 hr culture with tunicamycin 15 ug/ml or cycloheximide 1.25 ug/ml

With `O=C[C@@H](O)[C@@H](O)[C@H](O)[C@H](O)COP(=O)(O)O` [Mannose-6-P, D-mannose-6-phosphate] the “lymphocyte binding to KG1a (result in words)” value (“lymphocyte binding to KG1a” below) (KG1a [1]) was “inhibited”, the “Lymphocyte Adherence to KG1a, Mean of Binding (% of untreated control)” value (shortened to “Lymphocyte Adherence … (% of untreated control)”) (KG1a [1]; [4]) was 5.7 % of Untreated Control and the “lymphocyte binding to LN control sections / LN HEV (result in words)” value (LN HEV) was “inhibited”.

In the case of Chymotrypsin, the “lymphocyte binding to KG1a” value (KG1a [1]) is reported as “abrogated binding”, the “Lymphocyte Adherence … (% of untreated control)” value (KG1a [1]; KG1A TREATMENT) is reported as 6.7 % of Untreated Control and the “lymphocyte binding to LN control sections / LN HEV (result in words)” value (LN HEV) is reported as “abrogated binding”. The “L-selectin ligand (HCELL) activity of KG1a / lymphocyte adherence (result in words)” value (KG1a cells; Stamper-Woodruff assay) was “completely abrogates” and the “L-selectin ligand Activity of KG1a Cells Following Protease or Phospholipase C Treatment, % Control Binding” value (shortened to “L-selectin ligand Activity … % Control Binding”) (KG1a cells) was 6.7 % Control Binding.

In the case of Fucoidin, the “lymphocyte binding to KG1a” value (KG1a [1]) is reported as “inhibited”, the “Lymphocyte Adherence … (% of untreated control)” value (KG1a [1]; [4]) is reported as 1.4 % of Untreated Control and the “lymphocyte binding to LN control sections / LN HEV (result in words)” value (LN HEV) is reported as “inhibited”.

`O[C@H]1[C@H]2[C@H](O)CCCN2C[C@H]1O` [Swainsonine] was tested, and the “% Control Adhesion” value (KG1a cells; [5]) was 26.6 % Control Adhesion, the “L-selectin ligand (HCELL) activity of KG1a / lymphocyte adherence (result in words)” value (KG1a cells; Stamper-Woodruff assay) was “markedly diminished” and the “% Control Adhesion” value (KG1a cells; [6]) was 95.5 % Control Adhesion. The “return of the L60 epitope of CD43 after neuraminidase” value (from here on “return of the L60 epitope of CD43”) (CD43) was “not inhibited”.

In the case of `O=S(=O)(F)Cc1ccccc1` [PMSF], the “lymphocyte binding to KG1a” value (KG1a [1]) is reported as “prevented chymotrypsin effects”.

For Bromelain, the “lymphocyte binding to KG1a” value (KG1a [1]) was “abrogated binding”, the “Lymphocyte Adherence … (% of untreated control)” value (KG1a [1]; KG1A TREATMENT) was 3.8 % of Untreated Control and the “lymphocyte binding to LN control sections / LN HEV (result in words)” value (LN HEV) was “abrogated binding”. For the same molecule, the “L-selectin ligand (HCELL) activity of KG1a / lymphocyte adherence (result in words)” value (KG1a cells; Stamper-Woodruff assay) was “completely abrogates”, the “Mean % Control Binding” value (KG1a cells; [7]) was 95.2 % Control Binding and the “L-selectin ligand Activity … % Control Binding” value (KG1a cells) was 3.8 % Control Binding. The “Mean % Control Binding” value (KG1a cells; t = 0, no culture) was 3.8 % Control Binding.

With “BMEC CD44: CD44 immunoprecipitated from human bone marrow endothelial cells” the “E-selectin ligand activity of immunoprecipitated CD44” value (E-selectin; human bone marrow endothelial cells, Hermes-1 immunoprecipitate) was “did not possess any E-selectin ligand activity”.

In the case of “Neuraminidase: neuraminidase (sialidase), V. cholerae, Boehringer Mannheim”, the “lymphocyte binding to KG1a” value (KG1a [1]) is reported as “abrogated binding”, the “Lymphocyte Adherence … (% of untreated control)” value (KG1a [1]; KG1A TREATMENT) is reported as 3.1 % of Untreated Control and the “Lymphocyte Adherence … (% of untreated control)” value (KG1a [1]; KG1a treatment, t = 0, no culture) is reported as 0.02 % of untreated control. The “Lymphocyte Adherence … (% of untreated control)” value (KG1a [1]; neuraminidase then 24 hr culture) was 101.3 % of untreated control, the “lymphocyte binding to LN control sections / LN HEV (result in words)” value (LN HEV) was “abrogated binding” and the “% Control Adhesion” value (KG1a cells; Neuraminidase 1 h then 24 h recovery) was 99.3 % Control Adhesion. For the same molecule, the “% Control Adhesion” value (KG1a cells; Neuraminidase (1 h), 0.1 U/ml) was 1.0 % Control Adhesion, the “Mean % Control Binding” value (KG1a cells; [7]) was 101.3 % Control Binding and the “Mean % Control Binding” value (KG1a cells; t = 0, no culture) was 0.2 % Control Binding. For the same molecule, the “Cell viability (trypan blue exclusion)” value (KG1a [2]) was greater than 99%, the “E-selectin ligand activity (CHO-E cell rolling) on KG1a and HL-60 cells” value [3] was “no activity” and the “E-selectin ligand activity (CHO-E cell rolling) of KG1a membrane proteins / CD44 after treatment” value (KG1a CD44) was “markedly ablated CHO-E cell rolling”.

In the case of `OC[C@H]1NC[C@@H](O)[C@@H](O)[C@@H]1O` [Deoxymannojirimycin], the “% Control Adhesion” value (KG1a cells; [5]) is reported as 22.5 % Control Adhesion, the “L-selectin ligand (HCELL) activity of KG1a / lymphocyte adherence (result in words)” value (KG1a cells; Stamper-Woodruff assay) is reported as “markedly diminished” and the “% Control Adhesion” value (KG1a cells; [6]) is reported as 107.5 % Control Adhesion. For the same molecule, the “return of the L60 epitope of CD43” value (CD43) was “not inhibited”.

With `O=C(O)CN(CCN(CC(=O)O)CC(=O)O)CC(=O)O` [EDTA] the “lymphocyte binding to KG1a” value (KG1a [1]) was “completely inhibited”, the “Lymphocyte Adherence … (% of untreated control)” value (KG1a [1]; [4]) was 0.3 % of Untreated Control and the “lymphocyte binding to LN control sections / LN HEV (result in words)” value (LN HEV) was “completely inhibited”. For the same molecule, the “L-selectin ligand (HCELL) activity of KG1a / lymphocyte adherence (result in words)” value (KG1a cells) was “complete elimination”, the “E-selectin ligand activity (CHO-E cell rolling) on KG1a and HL-60 cells” value [3] was “completely inhibited; also recorded: no activity” and the “E-selectin ligand activity (CHO-E cell rolling) of KG1a membrane proteins / CD44 after treatment” value (KG1a CD44) was “no evidence of E-selectin-mediated adhesive interactions; also recorded: prevented CHO-E rolling”.

For `C[C@@H]1C[C@@H]([C@H](O)CC2CC(=O)NC(=O)C2)C(=O)[C@@H](C)C1` [Cycloheximide], the “Lymphocyte Adherence … (% of untreated control)” value (KG1a [1]; [8]) was 91.8 % of untreated control, the “return of binding activity following desialylation” value (KG1a [1]) was “blocked” and the “Lymphocyte Adherence … (% of untreated control)” value (KG1a [1]; [9]) was 0.5 % of untreated control. For the same molecule, the “Mean % Control Binding” value (KG1a cells; 20 hour culture with cycloheximide 1.25 μg/ml, no neuraminidase or bromelain digestion) was 91.8 % Control Binding, the “Mean % Control Binding” value (KG1a cells; after bromelain, 20 hour culture with cycloheximide 1.25 μg/ml) was 0.6 % Control Binding and the “Mean % Control Binding” value (KG1a cells; after neuraminidase, 20 hour culture with cycloheximide 1.25 μg/ml) was 0.5 % Control Binding.

Human Neutrophil Elastase: protease was tested, and the “L-selectin ligand (HCELL) activity of KG1a / lymphocyte adherence (result in words)” value (KG1a cells; Stamper-Woodruff assay) was “partially affects activity” and the “L-selectin ligand Activity … % Control Binding” value (KG1a cells) was 25.4 % Control Binding.

Tunicamycin was tested, and the “Lymphocyte Adherence … (% of untreated control)” value (KG1a [1]; [8]) was 106.2 % of untreated control, the “return of binding activity following desialylation” value (KG1a [1]) was “blocked” and the “Lymphocyte Adherence … (% of untreated control)” value (KG1a [1]; [9]) was 0.4 % of untreated control. For the same molecule, the “% Control Adhesion” value (KG1a cells; [5]) was 1.0 % Control Adhesion, the “L-selectin ligand (HCELL) activity of KG1a / lymphocyte adherence (result in words)” value (KG1a cells; Stamper-Woodruff assay) was “completely prevented ligand re-expression” and the “% Control Adhesion” value (KG1a cells; [6]) was 96.5 % Control Adhesion. For the same molecule, the “return of the L60 epitope of CD43” value (CD43) was “not inhibited”.

`CC(C)C[C@H](NC(=O)[C@@H](NC(=O)N[C@@H](Cc1ccccc1)C(=O)O)[C@@H]1CCN=C(N)N1)C(=O)N[C@H](C=O)Cc1ccccc1` [chymostatin] was tested, and the “lymphocyte binding to KG1a” value (KG1a [1]) was “prevented chymotrypsin effects”.

“KG1a CD44: HECA-452-reactive CD44 glycoform of KG1a, hematopoietic cell E-selectin/L-selectin ligand” was tested, and the “E-selectin-mediated CHO-E cell rolling on immunoprecipitated protein spotted onto plastic dishes” value (E-selectin) was “rolling was observed”.

B1: KG1a PSGL-1: P-selectin glycoprotein ligand-1 immunoprecipitated (4H10 moAb) from KG1a (protein, UniProt Q14242 42-412, looked up)
P-selectin glycoprotein …: QATEYEYLDYDFLPETEPPEMLRNSTDTTPLTGPGTPESTTVEPAARRSTGLDAGGAVTELTTELANMGNLSTDSAAMEIQTTQPAATEAQTTQPVPTEAQTTPLAATEAQTTRLTATEAQTTPLAATEAQTTPPAATEAQTTQPTGLEAQTTAPAAMEAQTTAPAAMEAQTTPPAAMEAQTTQTTAMEAQTTAPEATEAQTTQPTATEAQTTPLAAMEALSTEPSATEALSMEPTTKRGLFIPFSVSSVTHKGIPMAASNLSVNYPVGAPDHISVKQCLLAILILALVATIFFVCTVVLAVRLSRKGHMYPVRNYSPTEMVCISSLLPDGGEGPSATANGGLSKAKSPGLTPEPREDREGDDLTLHSFLP
modifications: KG1a cell glycoform
notes: P-selectin glycoprotein ligand-1 immunoprecipitated (4H10 moAb) from KG1a
B1 was tested, and the “E-selectin-mediated CHO-E cell rolling on immunoprecipitated protein spotted onto plastic dishes” value (E-selectin) was “no binding was observed” and the “CHO-E rolling on immunoprecipitated protein” value (E-selectin; lower shear force of 0.6 dynes/cm^2) was “did occur”.
